Test results published in US8969350B2, “Pharmaceutical product comprising a p38 kinase inhibitor and a second active ingredient” (Astrazeneca AB, priority 2008, dated 2015).
Structures can show the parent of a compound that is named as a salt. Where two headings read alike, the source gives them in different places. Blank lines part the entries; values can stand above or below the compound they belong to.

Columns and labels:
[1] = test system: LPS stimulated TNFα production from human PBMC; test: Inhibition of LPS-induced TNFα production in human peripheral blood mononuclear cells (FLISA); type: cell-based; conditions: Compound A alone, n=17, read-out: pIC50 for inhibition of LPS-induced TNFα production from human PBMC (converted)
Experimental: After the pre-incubation period, the cells were then incubated with LPS (1 μg/mL) for 4 hr at 37° C. to induce TNFα production. The total assay volume was 200 μL. At the end of the incubation period, 25 μL of the culture supernatant was analysed to quantify the TNFα released using a Flourescence-linked immunosorbance assay (FLISA). Fluorescence levels were read on an FMAT plate reader. Inhibition curves were fitted using a 4-parameter logistic equation in a non-linear curve fitting routine and activity was expressed as pIC50.

guinea pig trachea [2] = test: Guinea-pig isolated tracheal ring, Protocol A: relaxation of methacholine pre-contracted rings; conditions: mean ± s.e. mean, n=4; for EC50: Cavia porcellus
Experimental: (§1) Guinea-pigs (300-600 g) were killed by cervical dislocation and the trachea removed. After clearing the adherent connective tissue, the trachea was cut into segments (2-3 cartilage rings in width) and suspended in 10 ml organ baths containing modified Krebs' solution (mM; NaCl, 90; NaHCO3, 45; KCl, 5; MgSO4.7H2O, 0.5; Na2HPO4.2H2O, 1; CaCl2, 2.25; glucose, 10; pH 7.4, gassed with 5% CO2, 95% O2 at 37° C.). The tracheal rings were attached to an isometric force transducer for the measurement of isometric tension. The tissues were washed and a force of 1 g was applied to each tissue.
(§2) Protocol A: The rings were pre-contracted with methacholine (1 μM) and a cumulative (0.3 nM-3 μM) isoprenaline concentration effect curve constructed. The rings were washed and either Compound A (4 nM) or vehicle was added. The rings were then contracted with a second concentration of methacholine (1 μM). Once the contraction had reached a plateau cumulative concentration response curves to Compound C (0.1 nM-1 μM), Compound E (1 nM-1 μM) or Compound H (0.1 nM-1 μM) were constructed. Data were collected using the ADInstruments chart4 software, the maximum tension generated at each concentration of agonist was recorded and the response expressed as percentage relaxation (mean±s.e.mean). The data was fitted to a four parameter logistic and a potency value (pEC50) generated (expressed as mean±s.e.mean). Protocol B: A cumulative concentration effect curve to methacholine (3 nM-30 μM) was constructed and then the tissue was washed. […] A second extended cumulative concentration response curve to methacholine was constructed (3 nM-1 mM). Data were collected using the ADInstruments chart4 software, the maximum tension generated at each concentration of agonist was recorded and the results were expressed as percentage of the maximum response measured in the first curve.

guinea pig trachea [3] = test: Guinea-pig isolated tracheal ring, Protocol B: shift of methacholine concentration response curve (apparent pA2); conditions: mean ± s.e. mean, n=4; for pA2 in the presence of Compound A: apparent pA2 vs methacholine in the presence of Compound A (4 nM); for pA2 value: apparent pA2 vs methacholine, compound alone, Schild plot slope of 1 assumed
Experimental: as §1
as §2, with “Once the contraction had reached a plateau cumulative concentration response curves to Compound C (0.1 nM-1 μM), Compound E (1 nM-1 μM) or Compound H (0.1 nM-1 μM) were constructed.” left out

[4] = Water uptake by gravimetric vapour sorption (GVS); type: physicochemical; conditions: between RH of 0%-80%, as measured by GVS
Experimental: GVS profiles were measured using a Dynamic Vapour Sorption DVS-1 instrument. The solid sample ca. 1-5 mg was placed into a glass vessel and the weight of the sample was recorded during a dual cycle step method (40 to 90 to 0 to 90 to 0% relative humidity (RH), in steps of 10% RH).

[5] = compound alone (vehicle), relaxation of rings contracted with methacholine 1 μM, read-out: pEC50 value (converted)

SMILES: CNCCOc1ccccc1C1(Nc2nccn(-c3cc(C(=O)NC4CC4)cc(F)c3C)c2=O)CC1 [Compound A, N-cyclopropyl-3-fluoro-4-methyl-5-[3-[[1-[2-[2-(methylamino)ethoxy]phenyl]cyclopropyl]amino]-2-oxo-pyrazin-1-yl]benzamide]
IC50 [1]: 7.94 nM

EC50 (guinea pig trachea [2]; [5]): 10 nM
pEC50 value (guinea pig trachea [2]; compound alone (vehicle), relaxation of rings contracted with methacholine 1 μM, dihydrobromide): 8.0 ± 0.05
SMILES: CCN(CC)CCN(CCNCCc1ccc(O)c2[nH]c(=O)sc12)C(=O)CCOCCc1cccc2ccccc12 [Compound C, N-[2-(diethylamino)ethyl]-N-(2-{[2-(4-hydroxy-2-oxo-2,3-dihydro-1,3-benzothiazol-7-yl)ethyl]amino}ethyl)-3-[2-(1-naphthyl)ethoxy]propanamide dihydrobromide]

SMILES: O=C(O[C@H]1C[N+]2(CCCOc3ccccc3)CCC1CC2)C(O)(c1cccs1)c1cccs1 [Compound D, [(3R)-1-(3-phenoxypropyl)quinuclidin-1-ium-3-yl]2-hydroxy-2,2-bis(2-thienyl)acetate bromide, reference compound]
pA2 in the presence of Compound A (guinea pig trachea [3]): 10.5±0.07
pA2 value (guinea pig trachea [3]): 10.7±0.09

EC50 (guinea pig trachea [2]; [5]): 15.8 nM
EC50 (guinea pig trachea [2]; in the presence of Compound A (4 nM), rings contracted with methacholine 1 μM, read-out: pEC50 in the presence of Compound A (converted)): 20 nM
SMILES: CCc1cc2c(cc1CC)CC(NC[C@H](O)c1ccc(O)c3[nH]c(=O)ccc13)C2 [Compound E, 5-[(1R)-2-[(5,6-diethylindan-2-yl)amino]-1-hydroxy-ethyl]-8-hydroxy-1H-quinolin-2-one maleate, reference compound]

EC50 (guinea pig trachea [2]; [5]): 0.631 nM
pEC50 in the presence of Compound A (guinea pig trachea [2]; in the presence of Compound A (4 nM), rings contracted with methacholine 1 μM): 9.2±0.10
SMILES: O=C(CCNCCc1cccc(F)c1)N(CCNCCc1ccc(O)c2[nH]c(=O)sc12)C1CCCCC1 [Compound H, N-Cyclohexyl-N^3-[2-(3-fluorophenyl)ethyl]-N-(2-{[2-(4-hydroxy-2-oxo-2,3-dihydro-1,3-benzothiazol-7-yl)ethyl]amino}ethyl)-β-alaninamide di-D-mandelate]

SMILES: C[C@@](C(=O)O[C@H]1C[N+]2(CCc3ccc(F)cc3)CCC1CC2)(c1ccccc1)N1CCCCC1 [Compound J, (R)-1-[2-(4-fluoro-phenyl)-ethyl]-3-((S)-2-phenyl-2-piperidin-1-yl-propionyloxy)-1-azonia-bicyclo[2.2.2]octane 4-methylbenzenesulfonate]
pA2 in the presence of Compound A (guinea pig trachea [3]; 4-methylbenzenesulfonate): 10.1±0.10
pA2 value (guinea pig trachea [3]; 4-methylbenzenesulfonate): 9.9±0.12

SMILES: O=C(C[N+]12CCC(CC1)[C@@H](OC(=O)C1(c3ccccc3)CCCCCC1)C2)Nc1ccccn1 [Compound K, ((R)-3-(1-phenyl-cycloheptanecarbonyloxy)-1-(pyridin-2-ylcarbamoylmethyl)-1-azonia-bicyclo[2.2.2]octane bromide]
pA2 in the presence of Compound A (guinea pig trachea [3]): 9.9±0.15
pA2 value (guinea pig trachea [3]): 9.9±0.10

SMILES: C[N+]1(C)[C@@H]2C[C@@H](OC(=O)C(O)(c3cccs3)c3cccs3)C[C@H]1[C@@H]1O[C@@H]12 [Compound M, (1R,2R,4S,5S,7S)-7-{[hydroxy(dithiophen-2-yl)acetyl]oxy}-9,9-dimethy-3-oxa-9-azoniatricyclo[3.3.1.0~2,4~]nonane bromide, reference compound]
pA2 in the presence of Compound A (guinea pig trachea [3]): 12.0±0.08

water uptake [4]: 0.4%
SMILES: CNCCOc1ccccc1C1(Nc2nccn(-c3cc(C(=O)NC4CC4)cc(F)c3C)c2=O)CC1 [preparation 1 crystalline form A, N-Cyclopropyl-3-fluoro-4-methyl-5-[3-[[1-[2-[2-(methylamino)ethoxy]phenyl]cyclopropyl]amino]-2-oxo-1(2H)-pyrazinyl]-benzamide Crystalline Form A]
